Reference: patent US20030012732A1, “Feeding assay for identifying nematicidal compounds” (priority 1999, published 2003)

What was measured:
C. elegans [1] = assay: Feeding assay: ingestion of fluorescent microsphere beads (pharyngeal pumping), read by fluorimetry / fluorescence microscopy; assay type: in vivo, C. elegans of the Bristol N2 strain
Method: 1. C. elegans of the Bristol N2 strain (Brenner, S. 1974. The genetics of Caenorhabditis elegans. Genetics 77: 71-94) were cultured at room temperature on HMS174 E. coli bacteria (Campbell, J. L., Richardson, C., and Studier, F. W. 1978. Genetic recombination and complementation between bacteriophage T7 and cloned fragments of T7 DNA. Proc. Natl. Acad. Sci. USA. 75: 2276-2280) spread on a 150 mm diameter petri dish containing enhanced NGM 3% (w/v) (Avery, L., and Horvitz, H. R. 1990. Effects of starvation and neuroactive drugs on feeding in Caenorhabditis elegans. J. Exp. Zool. 253: 263-270) agar until a good population of adult nematodes was present, but food reserves had not been exhausted. (Nematodes may be mass cultured in suspension if required).
2. The nematodes were collected by washing with 10 mL and then 5 mL of […] and filtering over a 20 μm nylon mesh (Nytal—Catalogue no. BCNY-HD002-20) to retain adult nematodes.
3. Adult nematodes were collected from the mesh using a pasteur pipette and allowed to settle in an eppendorf tube at 1 g for 10 minutes. This packed volume was used to calculate quantities of nematodes for experiments and assays, although nematodes were resuspended in 2-10 volumes of M9 buffer for transfer. Quantitative transfers of nematodes were performed using a Gilson Pipetman P200 or equivalent and a yellow tip with 5 mm cut off the sharp end.
4. 96-well mesh-bottomed plates were blocked prior to performing the assay in order to minimise non-specific adherence of fluorescent microsphere beads. To block, 200 μL of a 0.1% (w/v) suspension of dark blue-dyed, non-fluorescent microsphere beads with a mean diameter of 0.95 μm and a hydrophilic surface coating (Catalogue code DC03B, carboxylate-modified polystyrene/polyvinyl copolymer) (manufactured and supplied by Bangs Laboratories, Inc. 9025 Technology Drive. Fishers, Ind. 46038-2886, USA) were added to the plate and incubated overnight at room temperature with orbital shaking at 70 r.p.m. Prior to the assay, the bead suspension was removed under vacuum using a Millipore Multiscreen manifold. The plate was washed three times by pipetting 200 μL of M9 buffer into each well, allowing the plate to sit for 5 minutes and then sucking off the suspension.
5. The assay was either set up in the wells of a solid-bottomed 24-well plate using a final assay volume in the range of 0.5 to 1.0 mL or it was set up in the wells of a 96-well mesh bottomed plate (Millipore Multiscreen N20 plates, custom order no. SE3R090M6). In the latter case, the final assay volume was always 100 μL. The assay buffer in all cases was M9. The added volume of a stock of M9 and the added volume of double-distilled water were adjusted so as to achieve a final concentration of 1×M9 in the desired assay volume. A sufficient volume of a suspension of nematodes was added to the assay wells to give a final percentage in the range of 2.5% to 15% (v/v) depending on the experiment. A stock solution of the drug or test compound (e.g. serotonin) was added to the wells of the plate to give the desired final concentration. A sufficient volume of a suspension of fluorescent microsphere beads in double-distilled water was added to give a final concentration in the range of 0.025% to 0.1% (w/v) depending on the experiment.
6. The fluorescent beads were 1.30 μm uniformly dyed microsphere beads with a hydrophilic surface-coating. The fluorescence excitation maximum was 420 nm and the emission maximum was 485 nm (catalogue code FC04F, carboxylate-modified polystyrene/polyvinyl copolymer, manufactured and supplied by Bangs Laboratories, Inc. 9025 Technology Drive, Fishers, Ind. 46038-2886, USA).
7. The assay plate was placed on an orbital shaker at 70 r.p.m. at room temperature and incubated for up to 180 minutes (normally 60 minutes), under subdued illumination.
8. At the end of the incubation 20 μL of 100 mM sodium azide was added to the wells of the 96-well mesh plate. […]

C. elegans [2] = assay: Videotaping nematodes under Nomarski interference microscopy (pharyngeal pumping rate); assay type: in vivo; settings: at the doses of FIG. 3, separate experiments (not shown)

## NCCc1c[nH]c2ccc(O)cc12 [serotonin]
C. elegans [1]; 5 mM serotonin, 60 minutes, FIG. 3
  effect of high concentration on signal (bead ingestion): suboptimal
C. elegans [1]; 10 μL packed volume of adult nematodes (1,600-1,800 nematodes), two hour incubation, gain setting of 30
  signal over control: 6246 arbitrary fluorescence intensity units
C. elegans [1]; estimated, high magnification examination
  microsphere beads contained in strongly labelled nematodes: at least several hundred microsphere beads
C. elegans [1]; in vivo
  effect on microsphere bead ingestion when present during the incubation: increased microsphere bead ingestion
C. elegans [1]; later experiments, optimised conditions
  average number of microsphere beads ingested by nematodes more than a control nematode: ≤ 2,400 microsphere beads
C. elegans [1]; later experiments, optimised conditions, same volume of nematodes
  signal strength over control relative to the earlier experiment: approximately 6 times greater
C. elegans [1]; other experiments under similar conditions to FIG. 1, high magnification examination
  treated nematodes that had ingested one or more microsphere beads: approximately 80%
C. elegans [1]; same experiment, two hour incubation
  microsphere beads ingested on average per serotonin-treated nematode more than a control nematode: 417 microsphere beads
C. elegans [2]
  effect on pharyngeal pumping rate: directly affects pharyngeal pumping rate
